Legend:
Type in all cases: cell-based
[1] = system: mantle cell lymphoma (Granta-519, Mino, and Jeko-1); assay: Cell viability (cytotoxicity) assay, mantle cell lymphoma cells; conditions: Homo sapiens; 48 hours, CCK8 or Alamar Blue; curves of Fig. 1f-j; read-out: Half maximal inhibitory concentration (IC50) in cell line cytotoxicity assays, Mantle Cell Lymphoma
[2] = system: Hepatocellular carcinoma cells (Hep3B, HepG2, and Huh7); assay: Cell viability (cytotoxicity) assay, hepatocellular carcinoma cells; conditions: Homo sapiens; 48 hours, CCK8 or Alamar Blue; curves of Fig. 1f-j; read-out: Half maximal inhibitory concentration (IC50) in cell line cytotoxicity assays, Hepatocellular Carcinoma
[3] = system: neuroblastoma cells (CHLA-255, CHLA-136, and SMS-KNCR); assay: Cell viability (cytotoxicity) assay, neuroblastoma cells; conditions: Homo sapiens, 48 hours, CCK8 or Alamar Blue, curves of Fig. 1f-j, read-out: Half maximal inhibitory concentration (IC50) in cell line cytotoxicity assays, Neuroblastoma

CC(=O)c1c(C)c2cnc(Nc3ccc(N4CCNCC4)cn3)nc2n(C2CCCC2)c1=O [Palbociclib, reference compound]
IC50 [1]: 8.4 µM
IC50 [2]: 11.9 µM
IC50 [3]: 9.2 µM

Source: paper PMC7385619, “A triple action CDK4/6-PI3K-BET inhibitor with augmented cancer cell cytotoxicity” (Cell Discovery, 2020)
